Measurements: patent publication US10130590B2, “Methods of treating cancer with atovaquone-related compounds” (DANA-FARBER CANCER INSTITUTE, INC., priority 2013, dated 2018)

What was measured:
K562 and U266 cells = test: Gene expression microarrays and qRT-PCR for atovaquone-induced genes; type: cell-based
Method: Gene expression was analyzed in triplicate, normalized by 18S rRNA, and expressed as mean±SEM. For gene expression microarrays, RNA was isolated by Trizol, purified further on RNeasy columns, and profiled using Affymetrix Human Gene 1.0 ST arrays (Affymetrix). Results were deposited under GEO Accession: GSE46575.
To discover the gene whose induction by atovaquone was responsible for mTOR inhibition, gene expression microarrays were performed in K562 and U266 cells. It was reasoned that induction of the causative factor must be common to all cell lines in which atovaquone inhibits the mTOR pathway. […] Of these, REDD1 is a known negative regulator of mTOR, whose activity is dependent on the TSC1/2-complex.

[1] = test system: non-malignant peripheral blood mononuclear cells (PBMC); test: Cell viability (Cell Titer Glo), PBMC; type: cell-based; details: 72 hours, healthy donors
Method: Mouse embryonic fibroblasts (MEFs) were cultured in DMEM+10% FBS. TSC2-null (see, Zhang et al. J Clin Invest. 2003; 112(8):1223-1233) and REDD1-null (see, Sofer et al. Mol. Cell. Biol. July 2005 vol. 25 no. 14 5834-5845) MEFs, along with MEFs from the littermate controls, were kind gifts from Dr. John Blenis and Dr. Leif Ellisen, respectively. HEL (see, Iwama et al. Mol. Cell. Biol. June 1999 vol. 19 no. 6 3940-3950) was a kind gift of Dr. Daniel G. Tenen and grown in RPMI-1640+10% FBS. OCI-AML2 and OCI-AML3 (see, Grunberger et al. Blood Dec. 1, 2003 vol. 102 no. 12 4153-4158), and MOLM-13 (German Collection of Microorganisms and Cell Cultures (DSMZ, Braunschweig, Germany)) were kind gifts of Dr. James D. Griffin and grown in RPMI-1640+10% FBS. MM.1S (ATCC) was a kind gift of Dr. Kenneth C. Anderson and grown in RPMI-1640+10% FBS. SET2 (see, Koppikar et al. Nature 489, 155-159 (6 Sep. 2012)) was a kind gift of Dr. Ross L. Levine and grown in RPMI-1640+10% FBS. HL60 (ATCC) was a kind gift of Dr. James D. Griffin and grown in RPMI-1640+10% FBS. […] Molecular Pharmacology 78(5):903-908; and Walker S R, et al. (2009) Reciprocal effects of STAT5 and STAT3 in breast cancer. Molecular Cancer Research: MCR 7(6):966-976). Peripheral blood mononuclear cells (PBMCs) were isolated from healthy donors by Ficoll density gradient centrifugation and maintained in RPMI-1640+10% FBS. […]

[2] = test system: U266 human multiple myeloma cells; test: U266 multiple myeloma xenograft in NSG mice; type: in vivo; details: 200 mg/kg daily by oral gavage
Method: Female NSG mice (obtained from The Jackson Laboratory, Bar Harbor, Me.) were injected subcutaneously with 5×10^6 U266 cells in 30% Matrigel, and tumors were allowed to grow to a volume of approximately 100 mm^3. At that point, animals were treated daily by oral gavage with either vehicle (5% benzyl alcohol in water), generic atovaquone, or Mepron® brand atovaquone (GlaxoSmithKline LLC, Philadelphia, Pa.) at a dose of 200 mg/kg.

O=C1C(O)=C([C@H]2CC[C@H](c3ccc(Cl)cc3)CC2)C(=O)c2ccccc21 [atovaquone, trans-2-[4-(4-chlorophenyl)cyclohexyl]-3-hydroxy-1,4-naphthalenedione]
REDD1 expression (K562 and U266 cells): inducing the expression of REDD1
viability of PBMC [1]: relatively preserved
median survival of the treated animals [2]: increase in the median survival
tumor growth rate ([2]; from tumor volume approximately 100 mm^3): prominent decrease in the growth rate
